Series [1] concerns the target T1, cloned human h-NK1 receptors expressed in CHO cells (Homo sapiens, UniProt P25103).
T1 construct: expressed in transfected cells; host or cells: CHO cells
In words: Binding experiment for h-NK1 receptors ([3H]-Substance P displacement). Conditions: read-out: h-NK1 pIC50 (converted).

For series [2], the target named is T2, cloned human h-NK2 receptors expressed in Sf9 cells (Homo sapiens, UniProt P21452).
T2 construct: expressed in transfected cells; host or cells: Sf9 cells
T2 sequence (P21452 1-398): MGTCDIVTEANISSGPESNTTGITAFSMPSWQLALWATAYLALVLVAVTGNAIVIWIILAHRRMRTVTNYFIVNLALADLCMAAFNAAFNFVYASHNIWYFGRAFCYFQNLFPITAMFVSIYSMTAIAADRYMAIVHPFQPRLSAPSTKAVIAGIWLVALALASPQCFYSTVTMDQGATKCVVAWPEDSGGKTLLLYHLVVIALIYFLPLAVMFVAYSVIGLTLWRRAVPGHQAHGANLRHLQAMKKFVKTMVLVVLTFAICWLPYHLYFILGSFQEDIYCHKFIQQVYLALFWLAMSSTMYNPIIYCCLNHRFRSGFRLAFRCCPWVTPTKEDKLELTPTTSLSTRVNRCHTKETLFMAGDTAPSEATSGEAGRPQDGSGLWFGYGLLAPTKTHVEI
As to the kind of experiment: Binding experiment for h-NK2 receptors ([3H]-SR-48968 displacement). Conditions: [3H]-SR-48968, Sf9 cells; read-out: h-NK2 pIC50 (converted).

Series [3] deals with T3, cloned human h-NK3 receptors expressed in CHO cells (Homo sapiens, UniProt P29371).
T3 construct: expressed in transfected cells; host or cells: CHO cells
T3 sequence (P29371 1-465): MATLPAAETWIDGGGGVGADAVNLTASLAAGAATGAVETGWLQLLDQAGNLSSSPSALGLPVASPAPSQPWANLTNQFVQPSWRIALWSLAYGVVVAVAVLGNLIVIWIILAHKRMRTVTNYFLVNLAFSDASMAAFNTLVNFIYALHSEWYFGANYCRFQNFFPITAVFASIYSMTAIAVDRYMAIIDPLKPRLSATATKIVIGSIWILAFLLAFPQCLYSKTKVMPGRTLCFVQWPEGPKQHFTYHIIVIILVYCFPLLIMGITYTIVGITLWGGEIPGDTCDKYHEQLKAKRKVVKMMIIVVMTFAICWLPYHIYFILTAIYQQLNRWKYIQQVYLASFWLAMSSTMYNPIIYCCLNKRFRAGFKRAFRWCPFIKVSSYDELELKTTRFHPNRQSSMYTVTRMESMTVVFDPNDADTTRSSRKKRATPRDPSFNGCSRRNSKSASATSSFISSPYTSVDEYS
In words: Binding experiment for h-NK3 receptors ([3H]-SR-142801 displacement). Conditions: [3H]-SR-142801, CHO cells; read-out: h-NK3 pIC50 (converted). As for the experimental part:
The compounds according to the invention were investigated for interaction with various neurotransmitter receptors, ion channels and transporter binding sites using the radioligand binding technique. Membranes from tissue homogenates or from cells, expressing the receptor or transporter of interests, were incubated with a radioactively labelled substance ([^3H]- or [^125I] ligand) to label a particular receptor. […] Following incubation, labelled membranes were harvested and rinsed with excessive cold buffer to remove non-bound radioactivity by rapid filtration under suction. Membrane bound radioactivity was counted in a scintillation counter and results were expressed in counts per minute (cpm).
The compounds were dissolved in DMSO and tested at 10 concentrations ranging from 10^−10 to 10^−5 M.
The ability of the compounds according to the invention to displace [^3H]-Substance P from cloned human h-NK1 receptors expressed in CHO cells, to displace [^3H]-SR-48968 from cloned human h-NK2 receptors expressed in Sf9 cells, and to displace [^3H]-SR-142801 from cloned human h-NK3 receptors expressed in CHO cells was evaluated.

Series [4] deals with loperamide-induced retching. In words: Antiemetic effects: loperamide-induced retching in ferrets. The class given is in vivo. The note with it: ferrets. As for the experimental part:
The antiemetic effects have been determined using the loperamide-induced retching model (i.e. retching induced by an opioid) in ferrets. To exclude species differences in antiemetic activiey, both compounds have also been tested for antiemetic activity against apomorphine in dogs.
Antagonism of emesis induced by the peripherally selective opioid loperamide (0.31 mg/kg, s.c.) was studied over a 1 h-period starting immediately after the emetic challenge in ferrets pretreated with test compound or solvent. In control animals pre-treated with solvent, loperamide induced pronounced retching (mean±SD: 95±39 counts; n=[…]) and, to a lesser extent, vomiting (5±4).

Read-outs that look alike come from different tables or passages of the source.

T1 sequence (P25103 whole entry): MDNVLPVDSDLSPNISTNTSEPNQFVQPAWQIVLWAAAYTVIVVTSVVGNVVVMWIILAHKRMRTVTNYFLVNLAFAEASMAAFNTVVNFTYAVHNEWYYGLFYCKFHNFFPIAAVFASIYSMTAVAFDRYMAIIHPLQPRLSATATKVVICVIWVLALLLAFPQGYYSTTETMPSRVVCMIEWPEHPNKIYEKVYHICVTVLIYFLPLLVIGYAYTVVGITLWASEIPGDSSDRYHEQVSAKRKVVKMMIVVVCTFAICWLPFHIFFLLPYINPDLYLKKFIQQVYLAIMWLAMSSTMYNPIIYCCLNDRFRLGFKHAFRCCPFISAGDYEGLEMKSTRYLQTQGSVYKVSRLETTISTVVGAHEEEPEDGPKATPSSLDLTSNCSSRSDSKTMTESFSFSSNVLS

Consider `O=C(c1cc(C(F)(F)F)cc(C(F)(F)F)c1)N1CCC(N2CCN(C3CCN(Cc4nc5ccccc5[nH]4)CC3)CC2)CC1Cc1ccccc1` (stereo not drawn) [Compound 7], for which the melting point turned out to be 135 °C. For the same compound, the IC50 in series [1] is 7.94 nM. The IC50 in series [2] was 1000 nM. Moreover, the IC50 in series [3] was 1000 nM.

Regarding `O=C(c1ccccc1)N1CCC(N2CCN(C3CCN(C(=O)c4cc(C(F)(F)F)cc(C(F)(F)F)c4)C(Cc4ccccc4)C3)CC2)CC1` (stereo not drawn) [Compound 3, {4-[4-(1-benzoyl-piperidin-4-yl)-piperazin-1-yl]-2-benzyl-piperidin-1-yl}-(3,5-bis-trifluoromethyl-phenyl)-methanone], the values for the IC50 in series [1], in series [2] and in series [3] were 1.26 nM, 501 nM and 251 nM, respectively. Besides, the “ratio of oral ED50 (at time of peak effect) over subcutaneous ED50 (obtained at 1 h)” value in series [4] was 1.4-1.8. Further, the ED50 in series [4] (blockade (=0 retches), intravenous route, 1 h after administration, read-out: ED50 for blockade of loperamide-induced retching) stood at 0.88 mg/kg; in series [4] (blockade (=0 retches), oral route, 1 h after administration, read-out: ED50 for blockade of loperamide-induced retching), 1.65 mg/kg; in series [4] (blockade (=0 retches), oral route, 2 h after administration, read-out: ED50 for blockade of loperamide-induced retching), 2.18 mg/kg; in series [4] (blockade (=0 retches), oral route, 4 h after administration, read-out: ED50 for blockade of loperamide-induced retching), 1.25 mg/kg; in series [4] (blockade (=0 retches), oral route, 8 h after administration, read-out: ED50 for blockade of loperamide-induced retching), 2.89 mg/kg; in series [4] (blockade (=0 retches), oral route, 16 h after administration, read-out: ED50 for blockade of loperamide-induced retching), 2.89 mg/kg. Further, the ED50 was 5 mg/kg in series [4] (blockade (=0 retches), oral route, 32 h after administration, read-out: ED50 for blockade of loperamide-induced retching); > 10 mg/kg in series [4] (blockade (=0 retches), oral route, 64 h after administration, read-out: ED50 for blockade of loperamide-induced retching); 0.39 mg/kg in series [4] (inhibition (<20 retches), intravenous route, 1 h after administration, read-out: ED50 for inhibition of loperamide-induced retching); 0.72 mg/kg in series [4] (inhibition (<20 retches), oral route, 1 h after administration, read-out: ED50 for inhibition of loperamide-induced retching); 0.96 mg/kg in series [4] (inhibition (<20 retches), oral route, 2 h after administration, read-out: ED50 for inhibition of loperamide-induced retching); 1.25 mg/kg in series [4] (inhibition (<20 retches), oral route, 4 h after administration, read-out: ED50 for inhibition of loperamide-induced retching). For the same compound, the 50% effective dose (ED50) was 1.25 mg/kg in series [4] (inhibition (<20 retches), oral route, 8 h after administration, read-out: ED50 for inhibition of loperamide-induced retching); 1.26 mg/kg in series [4] (inhibition (<20 retches), oral route, 16 h after administration, read-out: ED50 for inhibition of loperamide-induced retching); 3.81 mg/kg in series [4] (inhibition (<20 retches), oral route, 32 h after administration, read-out: ED50 for inhibition of loperamide-induced retching); > 10 mg/kg in series [4] (inhibition (<20 retches), oral route, 64 h after administration, read-out: ED50 for inhibition of loperamide-induced retching); 1.4 mg/kg in series [4] (oral administration, time of peak effect, read-out: graphically estimated peak-effect ED50 for blockade of retching (=0 retches)); 0.88 mg/kg in series [4] (iv, read-out: ED50 for blockade of retching 1 h after i.v. injection, i.v., 1 h). Also, the ED50 was 0.39 mg/kg in series [4] (iv, read-out: ED50 for inhibition of retching 1 h after i.v. injection, i.v., 1 h); 2.18 mg/kg in series [4] (read-out: ED50 (95% confidence limits) for blockade of loperamide-induced retching, p.o. route (−2 h), loperamide 0.31 mg/kg s.c., 2 h after oral administration, blockade = 0 retches); 1 mg/kg in series [4] (read-out: graphically estimated peak-effect ED50 for inhibition of retching (<20 retches), oral administration, time of peak effect); 0.96 mg/kg in series [4] (sc, read-out: ED50 for blockade of loperamide-induced retching, loperamide 0.31 mg/kg s.c., 1 h after subcutaneous administration, blockade = 0 retches); 0.96 mg/kg in series [4] (sc, blockade (=0 retches), subcutaneous route, 1 h after administration, read-out: ED50 for blockade of loperamide-induced retching); 0.55 mg/kg in series [4] (sc, inhibition (<20 retches), subcutaneous route, 1 h after administration, read-out: ED50 for inhibition of loperamide-induced retching). Besides, the median effective dose (ED50) worked out at 0.55 mg/kg in series [4] (sc, s.c., 1 h, <20 retches, read-out: ED50 for inhibition of retching one hour after s.c. injection) and 0.96 mg/kg in series [4] (sc, s.c., 1 h, =0 retches, read-out: ED50 for complete blockade of retching one hour after s.c. injection). The same compound gave a duration of action in series [4] (oral, at 4 times the peak-effect dose) of 32 h. Also, the “Ratio p.o./s.c. of ED50 for blockade of retching” value in series [4] (p.o. (−2 h) over s.c. (−1 h)) turned out to be 2.3.

The values above are taken from patent US20060128721A1, “Novel formulations of opioid-based treatments of pain comprising substituted 1,4-di-piperidin-4-yl-piperazine derivatives” (priority 2003, published 2006).
